Source: patent publication US11504367B2, “Compounds and methods for treating oxalate-related diseases” (OxaluRx, Inc., priority 2019, dated 2022)

Biological target: recombinant full-length human hydroxyacid oxidase 1 (HAO1), the equivalents of hGOX (Homo sapiens (Human), UniProt Q9UJM8)
Assay: In-vitro human glycolate oxidase (hGOX) assay (Amplex red fluorescence)
Type: biochemical
Settings: 6 nM recombinant human GO, 85 μM glycolate, 10 min preincubation
Method: The in-vitro glycolate oxidase assay was performed using recombinant full-length human hydroxyacid oxidase 1 (HAO1), the equivalents of hGOX. […] Purified HAO1 was dissolved in assay buffer consisting of 10 mM NaCl, 110 mM KCl, 2 mM MgCl2, 50 mM HEPES (pH 7.4), and 0.01% Triton™ X-100.
The plates were incubated for 10 min at room temperature, at which point Amplex red reagent (50 μM) was added.
The fluorescence intensity signal was measured on a VariosKan LUX instrument using an excitation of 560 nm and an emission of 590 nm. The IC50 values were calculated using Graphpad Prism. The fluorescence signal of wells containing only DMSO was defined as 100% GO activity, while the fluorescence signal without the glycolate substrate was defined as 0% GO activity.

Chain of recombinant full-length human hydroxyacid oxidase 1 (HAO1), the equivalents of hGOX (Q9UJM8 whole entry): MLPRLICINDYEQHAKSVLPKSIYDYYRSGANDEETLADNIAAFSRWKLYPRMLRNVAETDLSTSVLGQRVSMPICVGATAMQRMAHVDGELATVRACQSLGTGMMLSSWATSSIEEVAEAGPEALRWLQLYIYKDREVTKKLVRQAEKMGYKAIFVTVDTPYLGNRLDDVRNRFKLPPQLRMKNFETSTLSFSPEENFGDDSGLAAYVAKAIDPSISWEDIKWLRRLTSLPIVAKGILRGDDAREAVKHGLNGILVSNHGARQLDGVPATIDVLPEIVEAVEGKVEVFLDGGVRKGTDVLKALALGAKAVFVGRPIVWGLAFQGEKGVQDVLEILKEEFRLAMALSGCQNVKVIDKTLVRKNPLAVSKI

| SMILES | IC50 |
| --- | --- |
| O=C(O)c1nn[nH]c1Oc1ccc(C#CCc2ccccc2)cc1 [Example 348, 5-(4-(3-Phenylprop-1-ynyl)phenoxy)-1H-1,2,3-triazole-4-carboxylic Acid] | 5 nM |
| N#Cc1ccc(C#Cc2ccc(Oc3[nH]nnc3C(=O)O)cc2F)cc1 [Example 269, 5-(4-((4-Cyanophenyl)ethynyl)-3-fluorophenoxy)-1H-1,2,3-triazole-4-carboxylic Acid] | 1 nM |
| O=C(O)c1nn[nH]c1Oc1cccc(C#Cc2cccc(Cl)c2)c1 [Example 187, 5-(3-(2-(3-Chlorophenyl)ethynyl)phenoxy)-1H-1,2,3-triazole-4-carboxylic Acid] | 1 nM |
| Cn1nccc1C#Cc1ccc(Oc2[nH]nnc2C(=O)O)cc1 [Example 321, 5-(4-(2-(1-Methyl-1H-pyrazol-5-yl)ethynyl)phenoxy)-1H-1,2,3-triazole-4-carboxylic Acid] | 5 nM |
| CS(=O)(=O)c1ccc(C#Cc2ccc(Oc3[nH]nnc3C(=O)O)cc2F)cc1 [Example 272, 5-(3-Fluoro-4-(2-(4-(methylsulfonyl)phenyl)ethynyl)phenoxy)-1H-1,2,3-triazole-4-carboxylic Acid] | 2 nM |
| N#Cc1ccc(C#Cc2cc(F)cc(Oc3[nH]nnc3C(=O)O)c2)cc1 [Example 276, 4-(3-((4-Cyanophenyl)ethynyl)-5-fluorophenoxy)-1H-1,2,3-triazole-5-carboxylic Acid] | 3 nM |
| O=C(O)c1nn[nH]c1Oc1ccc(C#Cc2nccs2)cc1 [Example 341, 5-(4-(2-(Thiazol-2-yl)ethynyl)phenoxy)-1H-1,2,3-triazole-4-carboxylic Acid] | 28 nM |
| O=C(O)c1nn[nH]c1Oc1cccc(C#Cc2cccc(F)c2)c1 [Example 279, 5-(3-(2-(3-Fluorophenyl)ethynyl)phenoxy)-1H-1,2,3-triazole-4-carboxylic Acid] | 2 nM |
| CS(=O)(=O)c1ccc(Oc2[nH]nnc2C(=O)O)cc1C#Cc1ccccc1 [Example 149, 5-(4-(Methylsulfonyl)-3-(2-phenylethynyl)phenoxy)-1H-1,2,3-triazole-4-carboxylic Acid] | 14 nM |
| O=C(O)c1nn[nH]c1Oc1ccc(C#Cc2ncc[nH]2)cc1 [Example 331, 5-(4-(2-(1H-Imidazol-2-yl)ethynyl)phenoxy)-1H-1,2,3-triazole-4-carboxylic Acid] | 20 nM |
| COc1cc(C#Cc2ccc(Oc3[nH]nnc3C(=O)O)cc2)ccn1 [Example 283, 5-(4-(2-(2-Methoxypyridin-4-yl)ethynyl)phenoxy)-1H-1,2,3-triazole-4-carboxylic Acid] | 3 nM |
| Cn1ncc2cccc(C#Cc3cccc(Oc4[nH]nnc4C(=O)O)c3)c21 [Example 326, 5-(3-(2-(1-Methyl-1H-indazol-7-yl)ethynyl)phenoxy)-1H-1,2,3-triazole-4-carboxylic Acid] | 2 nM |
| CC(C)CC#Cc1cccc([S+]([O-])c2[nH]nnc2C(=O)O)c1 (centres unmarked) [Example 374, 5-(3-(4-Methylpent-1-ynyl)phenylsulfinyl)-1H-1,2,3-triazole-4-carboxylic Acid] | > 1000 nM |
| O=C(O)c1nn[nH]c1Oc1ccc(C#Cc2cn[nH]c2)cc1 [Example 178, 5-(4-(2-(1H-Pyrazol-4-yl)ethynyl)phenoxy)-1H-1,2,3-triazole-4-carboxylic Acid] | 6 nM |
| COc1cccc(C#Cc2cccc(Oc3[nH]nnc3C(=O)O)c2)c1 [Example 287, 5-(3-(2-(3-Methoxyphenyl)ethynyl)phenoxy)-1H-1,2,3-triazole-4-carboxylic Acid] | 4 nM |
| CCOC(=O)c1c(Oc2ccc(C#CCC3CC3)cc2)n[nH]c1C [Example 360, Ethyl 3-(4-(3-cyclopropylprop-1-ynyl)phenoxy)-5-methyl-1H-pyrazole-4-carboxylate] | > 1000 nM |
| O=C(O)c1nn[nH]c1Oc1ccc(C#Cc2cccc(F)c2)cc1 [Example 278, 5-(4-(2-(3-Fluorophenyl)ethynyl)phenoxy)-1H-1,2,3-triazole-4-carboxylic Acid] | 1 nM |
| COc1cccc(C#Cc2ccc(Oc3[nH]nnc3C(=O)O)cc2)c1 [Example 286, 5-(4-(2-(3-Methoxyphenyl)ethynyl)phenoxy)-1H-1,2,3-triazole-4-carboxylic Acid] | 2 nM |
| Cn1cc(C#Cc2ccc(Oc3[nH]nnc3C(=O)O)cc2)cn1 [Example 220, 5-(4-(2-(1-Methyl-1H-pyrazol-4-yl)ethynyl)phenoxy)-1H-1,2,3-triazole-4-carboxylic Acid] | 4 nM |
| O=C(O)c1nn[nH]c1Oc1cccc(C#Cc2cn[nH]c2)c1 [Example 320, 5-(3-(2-(1H-Pyrazol-4-yl)ethynyl)phenoxy)-1H-1,2,3-triazole-4-carboxylic Acid] | 6 nM |
| O=C(O)c1nn[nH]c1Oc1cccc(C#Cc2ncc[nH]2)c1 [Example 332, 5-(3-(2-(1H-Imidazol-2-yl)ethynyl)phenoxy)-1H-1,2,3-triazole-4-carboxylic Acid] | 7 nM |
| Cn1cc(C#Cc2ccc(Oc3[nH]nnc3C(=O)O)cc2)ccc1=O [Example 208, 4-(4-((1-Methyl-6-oxo-1,6-dihydropyridin-3-yl)ethynyl)phenoxy)-1H-1,2,3-triazole-5-carboxylic Acid] | 2 nM |
| Cn1ncc2ccc(C#Cc3cccc(Oc4[nH]nnc4C(=O)O)c3)cc21 [Example 319, 5-(3-(2-(1-Methyl-1H-indazol-6-yl)ethynyl)phenoxy)-1H-1,2,3-triazole-4-carboxylic Acid] | 2 nM |
| CCOC(=O)c1nn[nH]c1Oc1cccc(C#CCC(C)(C)F)c1 [Example 377, Ethyl 5-(3-(4-fluoro-4-methylpent-1-ynyl)phenoxy)-1H-1,2,3-triazole-4-carboxylate] | > 1000 nM |
| O=C(O)c1nn[nH]c1Oc1ccc(C#Cc2ccccc2)cc1 [Example 138, 5-(4-(2-Phenylethynyl)phenoxy)-1H-1,2,3-triazole-4-carboxylic Acid] | 7 nM |
| CCOC(=O)c1nn[nH]c1Oc1cccc(C#CCC(C)(C)C)c1 [Example 371, Ethyl 5-(3-(4,4-dimethylpent-1-ynyl)phenoxy)-1H-1,2,3-triazole-4-carboxylate] | > 1000 nM |

Continued, values first:

| IC50 | SMILES |
| --- | --- |
| 5 nM | O=C(O)c1nn[nH]c1Oc1ccc(C#Cc2cccc3cn[nH]c23)cc1 [Example 323, 5-(4-(2-(1H-Indazol-7-yl)ethynyl)phenoxy)-1H-1,2,3-triazole-4-carboxylic Acid] |
| 8 nM | O=C(O)c1nn[nH]c1Oc1cccc(C#CC2CCCCC2)c1 [Example 37, 5-(3-(2-Cyclohexylethynyl)phenoxy)-1H-1,2,3-triazole-4-carboxylic Acid] |
| 110 nM | O=C(O)c1nn[nH]c1Nc1cccc(C#CCC2CC2)c1 [Example 363, 5-(3-(3-Cyclopropylprop-1-ynyl)phenylamino)-1H-1,2,3-triazole-4-carboxylic Acid] |
| 4 nM | O=C(O)c1nn[nH]c1Oc1cc(C#Cc2ccccc2)ccc1F [Example 261, 5-(2-Fluoro-5-(2-phenylethynyl)phenoxy)-1H-1,2,3-triazole-4-carboxylic Acid] |
| 9 nM | O=C(O)c1nn[nH]c1Oc1cccc(C#CCC2CC(F)(F)C2)c1 [Example 367, 5-(3-(3-(3,3-Difluorocyclobutyl)prop-1-ynyl)phenoxy)-1H-1,2,3-triazole-4-carboxylic Acid] |
| > 1000 nM | CCOC(=O)c1nn[nH]c1Oc1cccc(C#CCC(C)C)c1 [Example 366, Ethyl 5-(3-(4-methylpent-1-ynyl)phenoxy)-1H-1,2,3-triazole-4-carboxylate] |
| 3 nM | Cn1ncc2c(C#Cc3ccc(Oc4[nH]nnc4C(=O)O)cc3)cccc21 [Example 314, 5-(4-(2-(1-Methyl-1H-indazol-4-yl)ethynyl)phenoxy)-1H-1,2,3-triazole-4-carboxylic Acid] |
| 3 nM | Cc1cccc(C#Cc2cccc(Oc3[nH]nnc3C(=O)O)c2)n1 [Example 294, 5-(3-(2-(6-Methylpyridin-2-yl)ethynyl)phenoxy)-1H-1,2,3-triazole-4-carboxylic Acid] |
| 40 nM | O=C(O)c1nn[nH]c1Oc1ccc(C#CC2CCOCC2)cc1 [Example 40, 5-(4-(2-(Tetrahydro-2H-pyran-4-yl)ethynyl)phenoxy)-1H-1,2,3-triazole-4-carboxylic Acid] |
| 2 nM | CS(=O)(=O)c1cccc(C#Cc2ccc(Oc3[nH]nnc3C(=O)O)cc2F)c1 [Example 273, 5-(3-Fluoro-4-(2-(3-(methylsulfonyl)phenyl)ethynyl)phenoxy)-1H-1,2,3-triazole-4-carboxylic Acid] |
| 3 nM | Cc1cc(C#Cc2ccc(Oc3[nH]nnc3C(=O)O)cc2)ccn1 [Example 298, 5-(4-(2-(2-Methylpyridin-4-yl)ethynyl)phenoxy)-1H-1,2,3-triazole-4-carboxylic Acid] |
| 1 nM | Cn1ccc(C#Cc2cccc(Oc3[nH]nnc3C(=O)O)c2)cc1=O [Example 257, 4-(3-((1-Methyl-2-oxo-1,2-dihydropyridin-4-yl)ethynyl)phenoxy)-1H-1,2,3-triazole-5-carboxylic Acid] |
| 4 nM | COc1ccc(C#Cc2ccc(Oc3[nH]nnc3C(=O)O)cc2)cc1 [Example 280, 5-(4-(2-(4-Methoxyphenyl)ethynyl)phenoxy)-1H-1,2,3-triazole-4-carboxylic Acid] |
| 3 nM | O=C(O)c1nn[nH]c1Oc1cccc(C#Cc2cccnn2)c1 [Example 340, 5-(3-(2-(Pyridazin-3-yl)ethynyl)phenoxy)-1H-1,2,3-triazole-4-carboxylic Acid] |
| 2 nM | O=C(O)c1nn[nH]c1Oc1ccc(C(F)(F)F)c(C#Cc2ccccc2)c1 [Example 263, 5-(4-(Trifluoromethyl)-3-(2-phenylethynyl)phenoxy)-1H-1,2,3-triazole-4-carboxylic Acid] |
